What all share (format): functional
For assay [1], the system named is Schistosoma japonicum. The assay can be described thus: Antischistosomal activity against adult Schistosoma japonicum assessed as worm survival at 50 uM after 48 hrs relative to control.
In assay [2] the test system is Schistosoma japonicum. The assay can be described thus: Antischistosomal activity against adult Schistosoma japonicum assessed as worm survival at 80 uM after 48 hrs relative to control.
In assay [3] the test system is Schistosoma japonicum. The assay can be described thus: Antischistosomal activity against adult Schistosoma japonicum assessed as worm survival at 60 uM after 48 hrs relative to control.
The test system of assay [4] is Schistosoma japonicum. The assay can be described thus: Antischistosomal activity against adult Schistosoma japonicum assessed as worm survival at 70 uM after 48 hrs relative to control.
For assay [5], the system named is Schistosoma japonicum. The assay can be described thus: Antischistosomal activity against adult Schistosoma japonicum assessed as worm survival at 50 uM after 72 hrs relative to control.
Assay [6] concerns Schistosoma japonicum. The assay can be described thus: Antischistosomal activity against adult Schistosoma japonicum assessed as worm survival at 80 uM after 72 hrs relative to control.
Assay [7] deals with Schistosoma japonicum. The experiment in a line: Antischistosomal activity against adult Schistosoma japonicum assessed as worm survival at 60 uM after 72 hrs relative to control.
The test system of assay [8] is Schistosoma japonicum. The assay can be described thus: Antischistosomal activity against adult Schistosoma japonicum assessed as worm survival at 70 uM after 72 hrs relative to control.
Assay [9] relates to Schistosoma japonicum. The experiment in a line: Antischistosomal activity against adult Schistosoma japonicum assessed as worm survival at 50 uM after 24 hrs relative to control.
In assay [10] the test system is Schistosoma japonicum. The assay can be described thus: Antischistosomal activity against adult Schistosoma japonicum assessed as worm survival at 80 uM after 24 hrs relative to control.
Assay [11] relates to Schistosoma japonicum. The assay can be described thus: Antischistosomal activity against adult Schistosoma japonicum assessed as worm survival at 60 uM after 24 hrs relative to control.
Assay [12] relates to Schistosoma japonicum. The assay can be described thus: Antischistosomal activity against adult Schistosoma japonicum assessed as worm survival at 70 uM after 24 hrs relative to control.
The test system of assay [13] is Schistosoma japonicum. The assay can be described thus: Antischistosomal activity against adult Schistosoma japonicum assessed as worm survival at 25 uM after 48 hrs relative to control.
The test system of assay [14] is Schistosoma japonicum. The experiment in a line: Antischistosomal activity against adult Schistosoma japonicum assessed as worm survival at 10 uM after 48 hrs relative to control.
For assay [15], the system named is Schistosoma japonicum. The experiment in a line: Antischistosomal activity against adult Schistosoma japonicum assessed as worm survival at 20 uM after 48 hrs relative to control.
For assay [16], the system named is Schistosoma japonicum. The assay can be described thus: Antischistosomal activity against adult Schistosoma japonicum assessed as worm survival at 15 uM after 48 hrs relative to control.
For assay [17], the system named is Schistosoma japonicum. The experiment in a line: Antischistosomal activity against adult Schistosoma japonicum assessed as worm survival at 25 uM after 72 hrs relative to control.
The test system of assay [18] is Schistosoma japonicum. The assay can be described thus: Antischistosomal activity against adult Schistosoma japonicum assessed as worm survival at 10 uM after 72 hrs relative to control.
Assay [19] concerns Schistosoma japonicum. The assay can be described thus: Antischistosomal activity against adult Schistosoma japonicum assessed as worm survival at 20 uM after 72 hrs relative to control.
Assay [20] concerns Schistosoma japonicum. The experiment in a line: Antischistosomal activity against adult Schistosoma japonicum assessed as worm survival at 15 uM after 72 hrs relative to control.
Assay [21] relates to Schistosoma japonicum. The assay can be described thus: Antischistosomal activity against juvenile Schistosoma japonicum assessed as worm survival at 50 uM after 24 hrs relative to control.
For assay [22], the system named is Schistosoma japonicum. The experiment in a line: Antischistosomal activity against juvenile Schistosoma japonicum assessed as worm survival at 10 uM after 24 hrs relative to control.
Assay [23] has as its system Schistosoma japonicum. The experiment in a line: Antischistosomal activity against juvenile Schistosoma japonicum assessed as worm survival at 5 uM after 24 hrs relative to control.
Assay [24] concerns Schistosoma japonicum. The experiment in a line: Antischistosomal activity against juvenile Schistosoma japonicum assessed as worm survival at 25 uM after 24 hrs relative to control.
In assay [25] the test system is Schistosoma japonicum. The experiment in a line: Antischistosomal activity against juvenile Schistosoma japonicum assessed as worm survival at 20 uM after 24 hrs relative to control.
Assay [26] relates to Schistosoma japonicum. The experiment in a line: Antischistosomal activity against juvenile Schistosoma japonicum assessed as worm survival at 50 uM after 48 hrs relative to control.
Assay [27] has as its system Schistosoma japonicum. The experiment in a line: Antischistosomal activity against juvenile Schistosoma japonicum assessed as worm survival at 10 uM after 48 hrs relative to control.
Assay [28] relates to Schistosoma japonicum. The experiment in a line: Antischistosomal activity against juvenile Schistosoma japonicum assessed as worm survival at 5 uM after 48 hrs relative to control.
For assay [29], the system named is Schistosoma japonicum. The assay can be described thus: Antischistosomal activity against juvenile Schistosoma japonicum assessed as worm survival at 25 uM after 48 hrs relative to control.
Assay [30] concerns Schistosoma japonicum. The assay can be described thus: Antischistosomal activity against juvenile Schistosoma japonicum assessed as worm survival at 20 uM after 48 hrs relative to control.
The test system of assay [31] is Schistosoma japonicum. The assay can be described thus: Antischistosomal activity against juvenile Schistosoma japonicum assessed as worm survival at 50 uM after 72 hrs relative to control.
The test system of assay [32] is Schistosoma japonicum. The experiment in a line: Antischistosomal activity against juvenile Schistosoma japonicum assessed as worm survival at 10 uM after 72 hrs relative to control.
In assay [33] the test system is Schistosoma japonicum. The assay can be described thus: Antischistosomal activity against juvenile Schistosoma japonicum assessed as worm survival at 5 uM after 72 hrs relative to control.
Assay [34] concerns Schistosoma japonicum. The experiment in a line: Antischistosomal activity against juvenile Schistosoma japonicum assessed as worm survival at 25 uM after 72 hrs relative to control.
Assay [35] relates to Schistosoma japonicum. The assay can be described thus: Antischistosomal activity against juvenile Schistosoma japonicum assessed as worm survival at 20 uM after 72 hrs relative to control.
The subject of assay [36] is Schistosoma japonicum. The experiment in a line: Antischistosomal activity against adult Schistosoma japonicum infected in mouse assessed as total worm reduction at 200 mg/kg, po administered 21 days after infection relative to control. Also noted: scale not given: the % may be the effect or the level left.
The subject of assay [37] is Schistosoma japonicum. The assay can be described thus: Antischistosomal activity against juvenile Schistosoma japonicum infected in mouse assessed as total worm reduction at 200 mg/kg, po administered 14 days after infection relative to control. Also noted: scale not given: the % may be the effect or the level left.
For assay [38], the system named is Schistosoma japonicum. The experiment in a line: Antischistosomal activity against adult Schistosoma japonicum assessed as worm survival at 25 uM after 24 hrs relative to control.
Assay [39] has as its system Schistosoma japonicum. The assay can be described thus: Antischistosomal activity against adult Schistosoma japonicum assessed as worm survival at 10 uM after 24 hrs relative to control.
Assay [40] deals with Schistosoma japonicum. The assay can be described thus: Antischistosomal activity against adult Schistosoma japonicum assessed as worm survival at 20 uM after 24 hrs relative to control.
Assay [41] concerns Schistosoma japonicum. The assay can be described thus: Antischistosomal activity against adult Schistosoma japonicum assessed as worm survival at 15 uM after 24 hrs relative to control.
Assay [42] concerns Schistosoma japonicum. The experiment in a line: Antischistosomal activity against adult Schistosoma japonicum assessed as worm survival at 100 uM after 48 hrs relative to control.
Assay [43] relates to Schistosoma japonicum. The assay can be described thus: Antischistosomal activity against adult Schistosoma japonicum assessed as worm survival at 100 uM after 72 hrs relative to control.
Assay [44] deals with Schistosoma japonicum. The assay can be described thus: Antischistosomal activity against juvenile Schistosoma japonicum assessed as worm survival at 100 uM after 24 hrs relative to control.
The subject of assay [45] is Schistosoma japonicum. The experiment in a line: Antischistosomal activity against juvenile Schistosoma japonicum assessed as worm survival at 100 uM after 48 hrs relative to control.
For assay [46], the system named is Schistosoma japonicum. The experiment in a line: Antischistosomal activity against juvenile Schistosoma japonicum assessed as worm survival at 100 uM after 72 hrs relative to control.
Assay [47] deals with Schistosoma japonicum. The assay can be described thus: Antischistosomal activity against adult Schistosoma japonicum assessed as worm survival at 100 uM after 24 hrs relative to control.

The values that follow come from ChEMBL document CHEMBL1949576, “Praziquantel derivatives exhibit activity against both juvenile and adult Schistosoma japonicum” (2012).

With `O=C(Oc1ccc2c(c1)C1CN(C(=O)C3CCCCC3)CC(=O)N1CC2)C1CCC2(CC1)OOC1(O2)C2CC3CC(C2)CC1C3` (stereo not drawn), the survival at 50 µM in the assay with Schistosoma japonicum [1], in the assay on Schistosoma japonicum [5] and in the assay on Schistosoma japonicum [9] was 40% throughout. In addition, the survival at 80 µM in the assay on Schistosoma japonicum [2], in the assay with Schistosoma japonicum [6] and in the assay on Schistosoma japonicum [10] was 0% each time. Moreover, the survival at 60 µM in the assay on Schistosoma japonicum [3], in the assay with Schistosoma japonicum [7] and in the assay with Schistosoma japonicum [11] was 40% throughout. Also, the survival at 70 µM worked out at 40% with Schistosoma japonicum [4], 20% in the assay on Schistosoma japonicum [8] and 20% in the assay on Schistosoma japonicum [12].

Turning to `C[C@H]1[C@@H](OC(=O)CCC(=O)Nc2ccc3c(c2)C2CN(C(=O)C4CCCCC4)CC(=O)N2CC3)O[C@@H]2O[C@@]3(C)CC[C@H]4[C@H](C)CC[C@@H]1[C@@]24OO3` (stereo partly drawn), the survival at 50 µM in the assay on Schistosoma japonicum [1], with Schistosoma japonicum [5], with Schistosoma japonicum [21], in the assay on Schistosoma japonicum [26], in the assay with Schistosoma japonicum [31] and with Schistosoma japonicum [9] was 0% each time. For the same compound, the survival at 25 µM with Schistosoma japonicum [13], in the assay with Schistosoma japonicum [17], with Schistosoma japonicum [24], with Schistosoma japonicum [29], in the assay with Schistosoma japonicum [34] and in the assay with Schistosoma japonicum [38] was 0% in each case. Moreover, the survival at 10 µM in the assay on Schistosoma japonicum [14] is 100%; with Schistosoma japonicum [18] it was 100%; in the assay with Schistosoma japonicum [22], 9.1%; with Schistosoma japonicum [27], 45.5%; with Schistosoma japonicum [32], 54.5%; in the assay on Schistosoma japonicum [39] it was 100%. Moreover, the survival at 20 µM was found to be 0% in the assay with Schistosoma japonicum [15]; 0% in the assay on Schistosoma japonicum [19]; 11.1% with Schistosoma japonicum [25]; 0% with Schistosoma japonicum [30]; 0% in the assay with Schistosoma japonicum [35]; 0% in the assay on Schistosoma japonicum [40]. Also, the survival at 15 µM in the assay with Schistosoma japonicum [16] stood at 60%; in the assay on Schistosoma japonicum [20] it was 40%; in the assay on Schistosoma japonicum [41] it was 0%. In addition, the survival at 5 µM with Schistosoma japonicum [23], with Schistosoma japonicum [28] and in the assay with Schistosoma japonicum [33] was 9.1% each time. The Activity in the assay on Schistosoma japonicum [36] was found to be 41.8%; with Schistosoma japonicum [37], 3.8%.

With `O=C(C1CCCCC1)N1CC(=O)N2CCc3ccccc3C2C1` (stereo not drawn) [PRAZIQUANTEL], the results for the survival at 50 µM in the assay with Schistosoma japonicum [1], with Schistosoma japonicum [5] and with Schistosoma japonicum [9] were 44.4%, 36.3% and 62.9%, respectively. The survival at 80 µM in the assay with Schistosoma japonicum [2] was determined as 19.1%; in the assay with Schistosoma japonicum [6] it was 10%; in the assay with Schistosoma japonicum [10], 28.8%. Also, the survival at 100 µM in the assay with Schistosoma japonicum [42] is 4.4%; with Schistosoma japonicum [43], 1.4%; with Schistosoma japonicum [44], 100%; with Schistosoma japonicum [45], 100%; with Schistosoma japonicum [46], 100%; in the assay with Schistosoma japonicum [47], 10%. The figures for the Activity with Schistosoma japonicum [36] and with Schistosoma japonicum [37] were 66.7% and 19.8%, respectively.
